Measured values from US20150225369A1, “DDR2 INHIBITORS FOR THE TREATMENT OF OSTEOARTHRITIS” (Merck Patent GmbH, priority 2012, published 2015).

target: T1, HEK293 transfected with human DDR2 (Homo sapiens, UniProt Q16832); assay: Phospho-DDR2 cellular assay (collagen II induced DDR2 phosphorylation, ELISA); format: cell-based; details: HEK293 transfected with human DDR2, 50 μg/ml chicken collagen II, 16 h; read-out: IC50 [p-DDR2]
T1 construct: expressed in transfected cells; host or cells: HEK293 (PLT460F_(DDR2)-P7-1)
T1 sequence (Q16832 22-855): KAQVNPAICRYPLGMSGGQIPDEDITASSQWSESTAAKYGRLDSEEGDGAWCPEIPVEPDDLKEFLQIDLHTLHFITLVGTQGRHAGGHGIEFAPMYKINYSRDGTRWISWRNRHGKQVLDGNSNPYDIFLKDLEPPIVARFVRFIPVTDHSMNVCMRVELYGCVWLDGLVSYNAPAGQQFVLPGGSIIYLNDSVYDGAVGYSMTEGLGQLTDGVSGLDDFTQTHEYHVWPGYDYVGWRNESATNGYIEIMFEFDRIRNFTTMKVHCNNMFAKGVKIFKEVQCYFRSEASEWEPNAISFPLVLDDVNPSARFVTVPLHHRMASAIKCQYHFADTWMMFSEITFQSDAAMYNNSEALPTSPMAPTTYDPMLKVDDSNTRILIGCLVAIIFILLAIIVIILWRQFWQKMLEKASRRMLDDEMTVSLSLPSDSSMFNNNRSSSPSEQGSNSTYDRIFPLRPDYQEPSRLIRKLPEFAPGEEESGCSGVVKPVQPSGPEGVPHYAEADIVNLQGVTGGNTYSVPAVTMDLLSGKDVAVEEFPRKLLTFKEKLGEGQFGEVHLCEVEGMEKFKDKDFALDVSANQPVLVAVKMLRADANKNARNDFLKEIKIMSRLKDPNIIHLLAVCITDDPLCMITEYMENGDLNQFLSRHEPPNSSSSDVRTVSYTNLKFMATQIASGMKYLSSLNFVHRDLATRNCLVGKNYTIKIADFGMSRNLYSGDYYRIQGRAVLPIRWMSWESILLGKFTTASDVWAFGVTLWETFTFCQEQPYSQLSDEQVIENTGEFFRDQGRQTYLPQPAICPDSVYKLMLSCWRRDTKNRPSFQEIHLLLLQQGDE
Summary of the method: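 Cells seeded 48 h in 10% FBS, serum-starved 8 h, then given compound (5% DMSO) with 50 μg/ml chicken collagen II for 16 h at 37 °C. Lysates captured on anti-DDR2 antibody plates; phospho-DDR2 detected with HRP anti-phosphotyrosine antibody by chemiluminescence.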

SMILES | IC50 [nM]
CNC(=O)c1cc(Oc2ccc(CNC(=O)Nc3cc(Cl)cnc3OC)cc2)ccn1 [compound 21] | 14
CNC(=O)c1cc(Oc2ccc(CNC(=O)Nc3cc(C(F)(F)F)cn(C)c3=O)cc2C)ccn1 [compound 7] | 12
Cc1cc(Oc2ccc(CNC(=O)Nc3cc(C(F)(F)F)cnc3Cl)cc2C)ccn1 [compound 30] | 60
CNC(=O)c1cc(Oc2ccc(CNC(=O)Nc3cc(C)cnc3OC)cc2)ccn1 [compound 19] | 24
COc1ncc(Cl)cc1NC(=O)NCc1ccc(Oc2ccnc(C)c2)c(C)c1 [compound 28] | 17
COc1ncc(C)cc1NC(=O)NCc1ccc(Oc2ccncc2)cc1 [compound 18] | 30
CNC(=O)c1cc(Oc2ccc(CNC(=O)Nc3cc(C(F)(F)F)cnc3Cl)cc2C)ccn1 [compound 26] | 43
CNC(=O)c1cc(Oc2ccc(CNC(=O)Nc3cc(C(F)(F)F)cn(C)c3=O)cc2)ccn1 [compound 8] | 28
Cc1cc(Oc2ccc(CNC(=O)Nc3cc(C(F)(F)F)cn(C)c3=O)cc2C)ccn1 [compound 6] | 30
CNC(=O)c1cc(Oc2ccc(CNC(=O)Nc3cc(Cl)cnc3OC)cc2C)ccn1 [compound 23] | 6.8
